Data: US7112590B2, “Thrombin inhibitors” (LEK Pharmaceuticals d.d., priority 2000, dated 2006)

How the values were obtained:
[1] = test system: normal pooled human plasma; test: Activated partial thromboplastin time (aPTT) coagulation assay; format: biochemical; settings: concentration of inhibitor that doubled the clotting time
Protocol: (§1) The Anticoagulant effect of thrombin inhibitors was measured by thrombin time (TT), activated partial thromboplastin time (aPTT), and prothrombin time (PT) assays. Inhibitors were added to normal pooled human plasma over a range of concentrations and clotting was recorded in an automated coagulometer (Fibrintimer, Dade/Behring). The concentration of inhibitor that doubled the clotting time was determined for each assay.
2. Activated Partial Thromboplastin Time (aPTT)
Incubation of plasma with the optimal quantity of phospholipids and a surface activator leads to activation of factors of the intrinsic coagulation pathway. The addition of calcium ions triggers the coagulation process. The time of fibrin clot formation wass measured. aPTT was used as a screening test for coagulation disorders of the intrinsic coagulation pathway. It is prolonged due to intrinsic coagulation factors deficit or due to the presence of inhibitors.
Pathromtin SL (Dade/Behring): silicon dioxide particles, vegetable phospholipids, sodium chloride (2.4 g/L), Hepes (14.3 g/L, pH 7.6), sodium azide (<1 g/L). The reagent was used at room temperature (15–25° C.).
Calcium chloride solution: 0.025 mol/L, warmed to 37° C.
(§2) Normal pooled plasma: venous blood from 11 apparently healthy volunteers was collected (1 part 0.11 mol/L sodium citrate solution with 9 parts of blood) and centrifuged immediately at 2000×g for 30 minutes at 4° C. Plasma was removed, pooled and stored in aliquots at −70° C. until use.
(§3) Inhibitors: were dissolved in DMSO (10 mM stock solution) and diluted with distilled water to working solutions (the highest concentration 100 μM).
Inhibitor (10 μL working solution, concentrations from 5 μM to 100 μM) and pooled plasma (90 μL) were incubated at 37° C. for 5 minutes. Pathromtin (100 μL) was added and the sample was incubated for another 2 minutes at 37° C. The addition of calcium chloride (100 μL) triggered the coagulation process and clot formation was detected with a coagulometer in duplicate.

trypsin = biological target: T1, trypsin (UniProt P00760); test: Determination of trypsin Ki (chromogenic substrate S-2222); format: biochemical; settings: substrate S-2222, pH 7.5, 25° C.
T1 construct: Trypsin (6000 E/mg prot; Sigma): dissolved in distilled water to give a stock solution of 300 E/mL
T1 sequence (P00760 1-246): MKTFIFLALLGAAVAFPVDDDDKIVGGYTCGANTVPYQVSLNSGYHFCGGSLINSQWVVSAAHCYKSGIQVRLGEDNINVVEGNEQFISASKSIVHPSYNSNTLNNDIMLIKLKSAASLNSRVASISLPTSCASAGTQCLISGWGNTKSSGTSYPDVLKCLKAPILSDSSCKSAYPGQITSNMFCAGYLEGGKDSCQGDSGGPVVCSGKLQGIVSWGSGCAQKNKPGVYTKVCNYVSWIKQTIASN
Protocol: (§4) The enzyme inhibitory effect of the compounds can be identified by determination of inhibition constant Ki. It denotes the degree of dissociation of the enzyme-inhibitor complex. Low dissociation constant means high potency of inhibitor. Ki can be determined during reaction of the enzyme with a specific chromogenic substrate which under hydrolysis by the enzyme develops color. Reaction in time is recorded by spectrophotometry and Ki is calculated from kinetic parameters (Vmax, Km, reaction rate).
2. Determination of Trypsin Ki
The ability of a compound to act as an inhibitor of trypsin catalytic activity was assessed by determination of Ki.
(§5) Buffer: HBSA, pH 7.5 (10 mM Hepes, 150 mM NaCl, 0.1% w/v bovine serum albumin)
Substrate (S-2222: N-benzoyl-Ile-Glu-Gly-Arg-pNA HCl, 25 mg; Chromogenix): dissolved in distilled water to 2 mM concentration. (Km is 21 μM)
Trypsin (6000 E/mg prot.; Sigma): dissolved in distilled water to give a stock solution of 300 E/mL.
Inhibitors: were dissolved in DMSO (10 mM stock solution) and diluted with distilled water to working solution (the highest final concentration of DMSO was 10%).
50 μL of buffer, 50 μL of test compound in water (final concentrations from 50 to 300 μM) and 50 μL of trypsin (3 mE/mL f.c.) were incubated for 15 minutes at room temperature. The reaction was started with 50 μL of S-2222 (50 μM or 100 μM f.c.) and the absorbance of each sample at 405 nm (at 25° C.) was measured in triplicates every 10 seconds for a period of 15 minutes using a microtiter plate reader (Tecan Sunrise).
Trypsin activity was determined from the change in absorbance in the linear part of velocity graph. Ki was calculated according to Cheng and Prussof (Biochem Pharmacol, 1973) where Ki is, IC50/(1+S/Km). The Km for the substrate was determined under test conditions with at least 6 substrate concentrations varying around Km and calculated with the non-linear regression program Curve expert.

[2] = test system: normal pooled human plasma; test: Thrombin time (TT) coagulation assay; format: biochemical; settings: concentration of inhibitor that doubled the clotting time, bovine thrombin reagent
Protocol: as §1
In a plasma sample thrombin converts fibrinogen into fibrin and the clot is formed. The time for clot formation was measured. Thrombin time is prolonged due to disorders in fibrin polymerisation or due to the presence of thrombin inhibitors.
Thrombin (Test Thrombin Reagent, 1.5 IU/mL, Dade/Behring): lyophilized bovine thrombin was dissolved in 5 mL of HEPES (25 mmol/L, pH 7.4). The reagent was warmed to 37° C. prior to the assay.
as §2, §3
Inhibitors (10 μL working solution, concentrations from 2.5 μM to 100 μM) and pooled plasma (90 μL) were incubated at 37° C. for 5 minutes and then thrombin (200 μL) was added. Clot formation was measured in a coagulometer in duplicate.

human thrombin = biological target: T2, human thrombin (Homo sapiens, UniProt P00734); test: Determination of thrombin Ki (chromogenic substrate S-2238); format: biochemical; settings: for Ki: human thrombin, substrate S-2238, pH 7.5, 25° C.; for Ki trypsin/ Ki thrombin: selectivity: ratio of Ki for trypsin to Ki for thrombin
T2 construct: Human thrombin (308 NIH; Sigma); purchased Sigma
Protocol: as §4
1. Determination of Thrombin Ki
The ability of a compound to act as an inhibitor of human thrombin catalytic activity was assessed by determination of Ki.
as §5
Substrate (S-2238: H-D-Phe-Pip-Arg-pNA HCl, 25 mg; Chromogenix): dissolved in distilled water to 1 mM concentration.
Human thrombin (308 NIH; Sigma): dissolved in saline to give a stock solution of 20 NIH/mL.
Inhibitors: were dissolved in DMSO (10 mM stock solution) and diluted with distilled water to working solutions (the highest final concentration of DMSO was 3%).
A mixture of 50 μL of buffer, 50 μL of inhibitor in water (final concentrations from 10 to 100 μM) and 50 μL of thrombin (0.5 NIH U/mL f.c.) was incubated for 15 minutes at room temperature. The reaction was started with 50 μL of S-2238 (20 μM or 40 μM f.c.) and the absorbance of each sample at 405 nm (at 25° C.) was measured in triplicate every 10 seconds for a period of 15 minutes using a microtiter plate reader (Tecan Sunrise).
Thrombin activity was determined from the change in absorbance in the linear part of the velocity graph. Ki was calculated according to Cheng and Prussof (Biochem Pharmacol, 1973) where Ki is IC50/(1+S/Km). The Km for the substrate was determined under the test conditions with at least 6 substrate concentrations varying around Km and calculated with the non-linear regression programme Curve expert.
3. Selectivity to Thrombin
By the use of other serine protease like trypsin with the appropriate chromogenic substrate, selectivity of inhibitors with respect to thrombin was determined. Selectivity of an inhibitor is expressed as a ratio of Ki for trypsin to Ki for thrombin.

[3] = test system: normal pooled human plasma; test: Prothrombin time (PT) coagulation assay; format: biochemical; settings: concentration of inhibitor that doubled the clotting time
Protocol: as §1
An optimal amount of thromboplastin and calcium are added to plasma sample and the time of fibrin clot formation wass measured. PT is a rapid, sensitive screening test for coagulation disorders of the extrinsic pathway. It is well suited for the induction and monitoring of oral anticoagulant therapy, for diagnosing genetic or acquired deficiencies in coagulation factors and checking the synthesis performance of the liver in hepatic diseases. PT is prolonged due to extrinsic coagulation factors deficit or due to the presence of inhibitors.
Thromboplastin (Thromborel S, Dade/Behring): was dissolved in 4 mL of distilled water. Reagent was at 37° C. prior to use at least 30 minutes.
as §2, §3
Inhibitor (10 μL working solution, concentrations from 5 μM to 100 μM) and pooled plasma (90 μL) were incubated at 37° C. for 5 minutes and then Thromborel S (200 μL) was added. Clot formation was measured with a coagulometer in duplicate.

Row | SMILES | aPTT [1] [µM] | Ki (trypsin) [µM] | TT [2] [µM] | Ki (human thrombin) [µM] | Ki trypsin/ Ki thrombin (human thrombin) | PT [3] [µM] | melting point [°C]
1 | O=C(NCC1CCc2n[nH]cc2C1)[C@@H]1CCCN1C(=O)[C@@H](CC1CCCCC1)NS(=O)(=O)Cc1ccccc1 (stereo partly drawn) [drawing 92] | 42.3 | 177 | 11 | 0.14 | 1267 | 78.3 | 
2 | Nc1nc2c(s1)CC(NC(=O)[C@@H]1CCCN1C(=O)[C@@H](CC1CCCCC1)NS(=O)(=O)Cc1ccccc1)CC2 (stereo partly drawn) [drawing 91] | 59 | > 68.3 | 15 | 0.12 | >569 | 114 | 
3 | Nc1nc2c(s1)CC(NC(=O)[C@@H]1CCCN1C(=O)[C@@H](Cc1ccccc1)NS(=O)(=O)Cc1ccccc1)CC2 (stereo partly drawn) [drawing 96] | 332 | > 68.3 | 84 | 0.62 | >110 | 578 | 
4 | Nc1nc2c(s1)CC(CNC(=O)[C@@H]1CCCN1C(=O)[C@@H](CC1CCCCC1)NS(=O)(=O)Cc1ccccc1)CC2 (stereo partly drawn) [drawing 95] | 64 | 39.9 | 15.8 | 0.37 | 107.8 | 95.3 | 
5 | O=C(O)CN[C@H](CC1CCCCC1)C(=O)N1CCC[C@H]1C(=O)NCC1CCc2n[nH]cc2C1 (stereo partly drawn) | 28 | 19.9 | 4.9 | 0.28 | 70.6 | 55.3 | 
6 | NC(C(=O)N1CCCC1C(=O)NCC1CCc2n[nH]cc2C1)C(c1ccccc1)c1ccccc1 (stereo not drawn) |  | 217 |  |  |  |  | 
7 | Nc1nc2c(s1)CC(NC(=O)CNC(=O)[C@@H](Cc1ccccc1)NS(=O)(=O)Cc1ccccc1)CC2 (stereo partly drawn) [Example 31, (2R)-N-{2-[(2-Amino-4,5,6,7-tetrahydro-1,3-benzothiazol-6-yl)amino]-2-oxoethyl}-2-[(benzylsulfonyl)amino]3-phenylpropanamide] |  |  |  |  |  |  | 119 to 122
8 | Cl.Cl.Nc1ncc2c(n1)CCC(CNC(=O)[C@@H]1CCCN1C(=O)[C@H](N)C(c1ccccc1)c1ccccc1)C2 (stereo partly drawn) |  |  |  |  |  |  | 166 to 168
